± gives the standard deviation of the averaged measurements.
Columns and labels:
[1] = tested on: S1507-2; test: drug sensitivity score (DSS, CellTiter-Glo viability, 72 h) (DSS (dimensionless)); higher = more sensitive; extreme values may be limits of the assay
In short: (§1)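 For this screen, 384-well plates were preprinted with each compound at five concentrations in 10-fold steps and seeded with MPNST cell lines or primary human Schwann cells at 750–1000 cells per well. Incubation lasted 72 h at 37 °C, 5% CO2, and CellTiter-Glo ATP luminescence, scaled between vehicle and positive-control wells and averaged over duplicates where available, served as viability. Logistic fits with four parameters were applied. Relative IC50 (censored at the top concentration) and drug sensitivity score derive from these fits, and percent inhibition is at the top concentration.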

[2] = tested on: HSC1 (primary human Schwann cells); test: as above
In short: as §1

[3] = tested on: HS-Sch-2; test: as above
In short: as §1

[4] = tested on: ST8814; test: as above
In short: as §1

[5] = tested on: S462; test: as above
In short: as §1

[6] = tested on: HS-PSS; test: as above
In short: as §1

[7] = tested on: HSC2 (primary human Schwann cells); test: as above
In short: as §1

[8] = tested on: YST-1; test: as above
In short: as §1

[9] = tested on: STS26T; test: as above
In short: as §1

[10] = tested on: S1507-2; test: % inhibition of CellTiter-Glo viability at highest tested concentration (72 h), relative to DMSO and benzethonium chloride controls; higher = more inhibition
In short: as §1

[11] = tested on: HSC1 (primary human Schwann cells); test: as above
In short: as §1

[12] = tested on: HS-Sch-2; test: as above
In short: as §1

[13] = tested on: ST8814; test: as above
In short: as §1

[14] = tested on: S462; test: as above
In short: as §1

[15] = tested on: HS-PSS; test: as above
In short: as §1

[16] = tested on: HSC2 (primary human Schwann cells); test: as above
In short: as §1

[17] = tested on: YST-1; test: as above
In short: as §1

[18] = tested on: STS26T; test: as above
In short: as §1

[19] = tested on: S1507-2; test: drug sensitivity score (DSS, CellTox-Green cytotoxicity, 72 h) (DSS (dimensionless)); higher = more cytotoxic; extreme values may be limits of the assay
In short: (§2)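 MPNST cell lines and primary human Schwann cells were grown for 72 h at 37 °C in 384-well plates containing five 10-fold compound dilutions. CellTox-Green, added before seeding at a final 1:1000 dilution, gave fluorescence from DNA released by disrupted cells, and signals were scaled to vehicle and positive-control wells. Curves were fitted with a four-parameter logistic model. Drug sensitivity score and relative IC50 come from these fits, with IC50 censored at the top concentration.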

[20] = tested on: HSC1 (primary human Schwann cells); test: as above
In short: as §2

[21] = tested on: ST8814; test: as above
In short: as §2

[22] = tested on: HS-PSS; test: as above
In short: as §2

[23] = tested on: HSC2 (primary human Schwann cells); test: as above
In short: as §2

[24] = tested on: STS26T; test: as above
In short: as §2

| SMILES | drug sensitivity score [1] | drug sensitivity score [2] | drug sensitivity score [3] | drug sensitivity score [4] | drug sensitivity score [5] | drug sensitivity score [6] | drug sensitivity score [7] | drug sensitivity score [8] | drug sensitivity score [9] | % inhibition [10] [%] | % inhibition [11] [%] | % inhibition [12] [%] | % inhibition [13] [%] | % inhibition [14] [%] | % inhibition [15] [%] | % inhibition [16] [%] | % inhibition [17] [%] | % inhibition [18] [%] | drug sensitivity score [19] | drug sensitivity score [20] | drug sensitivity score [21] | drug sensitivity score [22] | drug sensitivity score [23] | drug sensitivity score [24] |
| --- | --- | --- | --- | --- | --- | --- | --- | --- | --- | --- | --- | --- | --- | --- | --- | --- | --- | --- | --- | --- | --- | --- | --- | --- |
| CO[C@H]1[C@@H](N(C)C(=O)c2ccccc2)C[C@@H]2O[C@@]1(C)n1c3ccccc3c3c4c(c5c6ccccc6n2c5c31)C(=O)NC4 [Midostaurin] (max concentration tested 10000 nM) | 16.5 ± 1.1 | 21.6 | 12.2 | 13.9 | 10.7 ± 0.49 | 9.08 | 20.7 | 11.4 | 11.5 | 90.3 ± 1 | 93.2 | 73.6 | 85.2 | 71.9 ± 4.6 | 56.4 | 95.5 | 52.8 | 71.8 | 6.96 ± 1.9 | 11.9 | 11.1 | 0 | 19.4 | 13.4 |
| CO[C@@]12[C@H](COC(N)=O)C3=C(C(=O)C(C)=C(N)C3=O)N1C[C@@H]1N[C@@H]12 [Mitomycin C] (max concentration tested 10000 nM) | 3.18 ± 0.05 | 2.63 | 0.9 | 3.61 | 3.23 ± 0.21 | 0.31 | 2.34 | 4.11 | 2.31 | 69.5 ± 1.9 | 52.1 | 28.5 | 77.4 | 68.5 ± 1.9 | 16.2 | 51.3 | 55.7 | 50.2 | 2.38 ± 3 | 2.29 | 5.46 | 0 | 2.91 | 1.57 |
| Clc1ccc(C(c2ccccc2Cl)C(Cl)Cl)cc1 (stereo not drawn) [Mitotane] (max concentration tested 10000 nM) | 0 | 0 | 0 | 0 | 0 | 0 | 0 | 0 | 0 | 2.14 ± 4.9 | 4.91 | 1.46 | 6.22 | 2.7 ± 7.9 | -3.05 | 1.58 | 0.23 | 4.66 | 3.77 ± 5.3 | 0 | 0 | 0 | 0 | 0 |
| O=C1c2c(O)ccc(O)c2C(=O)c2c(NCCNCCO)ccc(NCCNCCO)c21 [Mitoxantrone] (max concentration tested 1000 nM) | 2.8 ± 1.2 | 2.89 | 4.38 | 2.63 | 5.57 ± 0.84 | 1.94 | 5.2 | 10.7 | 2.45 | 43.44 ± 0.12 | 37.8 | 42.7 | 46.7 | 72.66 ± 0.27 | 28.8 | 43 | 77 | 53.5 | 0 | 0 | 1.65 | 0 | 0 | 1.34 |
| Nc1ccccc1NC(=O)c1ccc(CNc2nccc(-c3cccnc3)n2)cc1 [Mocetinostat] (max concentration tested 10000 nM) | 8.06 ± 0.65 | 9.63 | 9.89 | 8.59 | 15.4 ± 0.54 | 6.61 | 10.5 | 15 | 8.68 | 95.338 ± 0.088 | 83.9 | 101 | 93.5 | 94.19 ± 0.4 | 88 | 87.2 | 100 | 87.5 | 5.36 ± 2.5 | 4.7 | 5.01 | 4.26 | 6.39 | 6.23 |
| N#CCNC(=O)c1ccc(-c2ccnc(Nc3ccc(N4CCOCC4)cc3)n2)cc1 [Momelotinib] (max concentration tested 10000 nM) | 3.09 ± 0.61 | 7.64 | 5.45 | 3.16 | 4.7 ± 0.25 | 3.21 | 8.06 | 5.7 | 3.24 | 67.1 ± 11 | 76.8 | 60.3 | 41.6 | 74.7 ± 4.7 | 49.2 | 81.2 | 55.4 | 58.8 | 0.683 ± 0.4 | 0.946 | 0 | 0 | 1.87 | 0 |
| CC1(C)CNc2cc(NC(=O)c3cccnc3NCc3ccncc3)ccc21 [Motesanib] (max concentration tested 10000 nM) | 0 | 0 | 0 | 0 | 0 | 0 | 0.232 | 0.25 | 0 | 6.17 ± 1.9 | 9.4 | 7.18 | -4.55 | 4.64 ± 6.4 | 5.39 | 15.5 | 15 | 4.89 | 0.104 ± 0.15 | 0 | 0 | 0 | 0 | 0 |

Reference: the supplement of paper PMC5579334
